Measured values: paper PMC3079629, “Cloning and characterization of a 9-lipoxygenase gene induced by pathogen attack from Nicotiana benthamiana for biotechnological application” (BMC Biotechnology, 2011)

Biological target: T1, Nb-9-LOX (Nicotiana benthamiana, UniProt R4S2V6)
T1 construct: protein starts MSLEKI, ends NSVSI (from primers)
T1 sequence (R4S2V6 1-862): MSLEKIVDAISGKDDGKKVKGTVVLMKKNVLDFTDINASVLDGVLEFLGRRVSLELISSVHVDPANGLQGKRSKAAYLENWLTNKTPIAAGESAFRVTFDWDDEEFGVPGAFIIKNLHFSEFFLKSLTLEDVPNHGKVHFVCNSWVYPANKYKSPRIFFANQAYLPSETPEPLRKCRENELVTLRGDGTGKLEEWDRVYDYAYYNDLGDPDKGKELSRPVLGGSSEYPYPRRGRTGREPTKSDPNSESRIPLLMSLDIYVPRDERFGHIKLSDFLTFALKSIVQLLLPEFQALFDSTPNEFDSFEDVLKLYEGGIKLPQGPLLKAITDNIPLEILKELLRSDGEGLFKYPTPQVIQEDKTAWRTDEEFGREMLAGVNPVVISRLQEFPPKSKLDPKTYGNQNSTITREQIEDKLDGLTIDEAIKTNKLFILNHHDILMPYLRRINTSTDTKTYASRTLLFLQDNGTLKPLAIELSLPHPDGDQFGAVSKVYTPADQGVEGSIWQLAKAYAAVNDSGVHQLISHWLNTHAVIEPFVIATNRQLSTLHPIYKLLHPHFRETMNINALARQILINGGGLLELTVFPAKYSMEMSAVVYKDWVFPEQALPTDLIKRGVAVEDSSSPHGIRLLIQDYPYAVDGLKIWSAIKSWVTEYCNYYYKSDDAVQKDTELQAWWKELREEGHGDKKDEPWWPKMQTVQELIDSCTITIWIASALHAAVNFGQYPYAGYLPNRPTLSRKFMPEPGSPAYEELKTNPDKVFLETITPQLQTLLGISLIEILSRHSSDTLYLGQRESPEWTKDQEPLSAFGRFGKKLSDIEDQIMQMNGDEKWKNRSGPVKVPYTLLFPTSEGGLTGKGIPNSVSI
Assay: spectrophotometry at […] nm, conjugated diene formation, crude yeast extract
Format: biochemical
Conditions: 50 mM sodium phosphate; pH 6.0 presumed for the Km (used after the optimum was found); room temperature; O2

Km: 3.9 µM
SMILES: CCCCC/C=C\C/C=C\CCCCCCCC(=O)O [linoleic acid]
